These results are taken from ChEMBL document CHEMBL4673405, “Novel Linker Variants of Antileishmanial/Antitubercular 7-Substituted 2-Nitroimidazooxazines Offer Enhanced Solubility” (ACS Med Chem Lett, 2021).

The structures appear in SMILES notation. ≈ marks a conversion by molar mass, not a printed value.

Data set [1] deals with Mycobacterium tuberculosis. The experiment in a line: Antitubercular activity against Mycobacterium tuberculosis H37Rv assessed as minimum inhibitory concentration required to inhibit 90% of bacterial growth incubated for 10 days under anerobic condition followed by incubation under ambient gaseous condition for 7 days by low oxygen recovery assay. Type of data set: functional. The note with it: 408 h, time 17 day.

Data set [2] concerns MRC5. The experiment in a line: Cytotoxicity against human MRC5 cells assessed as reduction in cell viability measured after 72 hrs by resazurin assay. The following applies: MRC5, 72 h. Type of data set: ADME, cell-based.
The subject of data set [3] is Leishmania donovani. In words: Antileishmanial activity against Leishmania donovani MHOM/ET/67/HU3 amastigotes infected in BALB/c mouse model of visceral leishmaniasis assessed as reduction in parasite burden in liver at 12.5 mg/kg, po administered once daily for 5 consecutive days starting after 7 days post-infection by microscopic analysis relative to control. Type of data set: functional. The arrangement: scale not given: the % may be the effect or the level left. The following applies: time 5 day.

Data set [4] has as its system Leishmania donovani. The experiment in a line: Antileishmanial activity against Leishmania donovani MHOM/ET/67/HU3 amastigotes infected in BALB/c mouse model of visceral leishmaniasis assessed as reduction in parasite burden in liver at 25 mg/kg, po administered once daily for 5 consecutive days starting after 7 days post-infection by microscopic analysis relative to control. Type of data set: functional. Details: scale not given: the % may be the effect or the level left. The note with it: time 5 day.

The nature of data set [5]: Aqueous solubility of the compound at pH 7 sonicated for 15 mins by HPLC analysis. The note with it: aqueous medium.
The test system of data set [6] is Leishmania infantum. The experiment in a line: Antileishmanial activity against Leishmania infantum MHOM/MA(BE)/67 amastigotes infected in mouse peritoneal macrophages incubated for 5 days by Giemsa staining based assay. Type of data set: functional, organism-based. The note with it: MHOM/MA(BE)/67, Peritoneal macrophage, 120 h.
The subject of data set [7] is Mycobacterium tuberculosis. In words: Antitubercular activity against Mycobacterium tuberculosis H37Rv assessed as minimum inhibitory concentration required to inhibit 90% of bacterial growth incubated for 7 days under aerobic condition by microplate Alamar blue assay. Type of data set: functional. The note with it: 168 h, time 7 day.
The subject of data set [8] is Leishmania donovani. The experiment in a line: Antileishmanial activity against Leishmania donovani MHOM/ET/67/HU3 amastigotes infected in BALB/c mouse model of visceral leishmaniasis assessed as reduction in parasite burden in liver at 6.25 mg/kg, po administered once daily for 5 consecutive days starting after 7 days post-infection by microscopic analysis relative to control. Type of data set: functional. The following applies: time 5 day. Details: scale not given: the % may be the effect or the level left.

Data set [9] concerns Leishmania donovani. In words: Antileishmanial activity against Leishmania donovani MHOM/ET/67/HU3 amastigotes infected in BALB/c mouse model of visceral leishmaniasis assessed as reduction in parasite burden in liver at 50 mg/kg, po administered once daily for 5 consecutive days starting after 7 days post-infection by microscopic analysis relative to control. Type of data set: functional. Details: scale not given: the % may be the effect or the level left. The note with it: time 5 day.

Data set [10] can be described thus: Solubility of the compound in 0.1 M HCl at pH 1 sonicated for 15 mins by HPLC analysis. Type of data set: physicochemical.

As for `C[C@]1(COC(=O)Nc2ccc(OC(F)(F)F)cc2)CCn2cc([N+](=O)[O-])nc2O1`, the MIC90 in data set [1] turned out to be 1 µM (≈ 0.416 µg/mL); in [7], 0.085 µM (≈ 0.0354 µg/mL). The half-inhibitory concentration (IC50) in [2] was at least 40000 nM; in data set [6], 140 nM. Moreover, the Activity in data set [3] is on record as 40%; in data set [4] it was 89%. The same compound had a solubility at 0.25 h in data set [5] of 6.3 µg/mL (≈ 15.1 µM).

`CC1(CNc2ccc(OC(F)(F)F)cc2)CCn2cc([N+](=O)[O-])nc2O1` (stereo not drawn): the 50% inhibitory concentration (IC50) was at least 40000 nM in data set [2] and 180 nM in [6]. Moreover, the figures for the Activity in [8] and in data set [9] were 29% and above 99%, respectively. Further, the solubility at 0.25 h worked out at 3 µg/mL (≈ 8.06 µM) in data set [5] and 10 µg/mL (≈ 26.9 µM) in data set [10].
